Literature values as cited in patent US10352920B2, “Supplements and monitoring systems for dosing of the supplements” (i-CalQ, LLC, priority 2012, dated 2019).

Tests used:
[1] = tested on: lipoxygenase; settings: in vitro
[2] = dietary curcumin
[3] = target: inducible nitric oxide synthase (Homo sapiens, UniProt P35228); settings: in vitro
[4] = tested on: cognitive function; settings: administration of 9 grams
[5] = tested on: cortisol; settings: ingestion of 1 gram for 7 days
[6] = tested on: athletes involved in cycling, weight training and endurance running; settings: sports nutrition studies

Chain of inducible nitric oxide synthase (P35228 whole entry): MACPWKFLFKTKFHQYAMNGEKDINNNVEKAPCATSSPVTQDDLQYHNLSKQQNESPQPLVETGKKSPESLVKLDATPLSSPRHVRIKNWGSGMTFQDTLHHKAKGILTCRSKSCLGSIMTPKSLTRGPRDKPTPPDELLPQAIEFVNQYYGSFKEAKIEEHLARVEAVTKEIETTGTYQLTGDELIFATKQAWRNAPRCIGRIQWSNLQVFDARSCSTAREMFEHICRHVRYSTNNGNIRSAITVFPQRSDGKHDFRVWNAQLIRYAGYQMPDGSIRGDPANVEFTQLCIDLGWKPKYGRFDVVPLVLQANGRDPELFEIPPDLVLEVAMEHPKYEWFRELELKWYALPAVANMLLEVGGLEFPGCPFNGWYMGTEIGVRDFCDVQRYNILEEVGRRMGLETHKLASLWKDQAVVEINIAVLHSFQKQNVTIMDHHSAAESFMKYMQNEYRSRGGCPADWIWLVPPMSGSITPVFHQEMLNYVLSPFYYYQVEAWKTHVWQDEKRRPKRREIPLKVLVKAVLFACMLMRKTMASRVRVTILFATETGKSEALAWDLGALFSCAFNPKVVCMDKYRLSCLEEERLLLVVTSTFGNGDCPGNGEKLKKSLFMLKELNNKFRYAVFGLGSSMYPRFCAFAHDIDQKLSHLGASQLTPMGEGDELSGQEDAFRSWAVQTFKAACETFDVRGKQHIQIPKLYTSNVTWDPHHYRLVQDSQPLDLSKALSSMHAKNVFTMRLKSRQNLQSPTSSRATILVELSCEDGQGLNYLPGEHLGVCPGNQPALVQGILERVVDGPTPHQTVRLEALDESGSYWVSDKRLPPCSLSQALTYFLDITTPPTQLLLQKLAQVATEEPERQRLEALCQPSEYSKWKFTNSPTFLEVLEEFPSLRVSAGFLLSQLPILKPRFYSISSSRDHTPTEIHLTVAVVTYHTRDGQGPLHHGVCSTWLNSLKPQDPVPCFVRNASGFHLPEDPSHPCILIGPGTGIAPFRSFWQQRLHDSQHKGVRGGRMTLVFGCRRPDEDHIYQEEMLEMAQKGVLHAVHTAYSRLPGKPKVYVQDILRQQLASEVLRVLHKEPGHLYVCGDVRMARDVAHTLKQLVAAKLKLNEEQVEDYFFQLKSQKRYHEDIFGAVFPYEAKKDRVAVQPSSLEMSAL

Compound: COc1cc(/C=C/C(=O)CC(=O)/C=C/c2ccc(O)c(OC)c2)ccc1O [curcumin]
- activity of lipoxygenase [1]: down-regulating the activity
- bioavailability (levels in plasma and tissues) [2]: poor bioavailability
- activity of inducible nitric oxide synthase [3]: down-regulating the activity

Compound: N[C@@H](Cc1ccc(O)cc1)C(=O)O [tyrosine]
- cognitive function following experimentally induced hypothermia [4]: improves cognitive function

Compound: O=C1O[C@H]([C@@H](O)CO)C(O)=C1O [vitamin C]
- cortisol rise in response to lipopolysaccharide administration [5]: blunts the cortisol rise

Compound: phosphotidylserine
- muscle soreness [6]: prevent muscle soreness
- recovery [6]: speed up recovery
- well-being [6]: improve well-being
